Holding throughout (format): cell-based
Assay [1] deals with T1, human 5-HT3A receptor D177A+F199A double mutant (Homo sapiens, UniProt P46098, D199A/F221A).
T1 sequence (P46098 24-478 D199A/F221A): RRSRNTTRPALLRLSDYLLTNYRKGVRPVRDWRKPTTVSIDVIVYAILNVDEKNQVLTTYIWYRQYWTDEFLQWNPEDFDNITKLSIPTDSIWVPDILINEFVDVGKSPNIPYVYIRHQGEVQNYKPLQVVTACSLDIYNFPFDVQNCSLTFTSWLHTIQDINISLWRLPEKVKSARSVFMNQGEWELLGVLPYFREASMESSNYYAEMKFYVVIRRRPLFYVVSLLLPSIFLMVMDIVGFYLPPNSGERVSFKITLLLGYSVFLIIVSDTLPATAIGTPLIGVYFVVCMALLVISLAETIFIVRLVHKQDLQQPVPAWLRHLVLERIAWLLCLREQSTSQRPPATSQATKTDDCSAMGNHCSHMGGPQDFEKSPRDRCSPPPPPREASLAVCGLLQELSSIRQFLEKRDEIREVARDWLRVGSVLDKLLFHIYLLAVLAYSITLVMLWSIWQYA
The experiment in a line: Two-electrode voltage clamp, I5-HT inhibition, D177A+F199A double mutant. A general note: In two-electrode clamp one electrode senses voltage and the other passes current.
Procedure: (§1) Human 5-HT3A receptor cDNA was linearized using restriction enzyme XhoI. In vitro transcription was performed using an mMESSAGE mMACHINE T7 Transcription Kit (Thermo Fisher Scientific, Waltham, MA, USA). The final mRNA product was dissolved in 1X Diethyl Pyrocarbonate (RNase-free water) at a final concentration of 1 μg/μL and kept in a deep-freezer at −80 °C until used.
(§2) Xenopus oocytes were used in this study as cells for expression of human 5-HT3A receptor. All female frogs used in this experiment were obtained from the Korean Xenopus Resource Center for Research (KXRCR000001). […] Xenopus oocytes were extracted during ice incubation state and isolated as single oocytes using collagenase II (2 mg/mL) in OR2 buffer (82.5 mM NaCl, 2 mM KCl, 1 mM MgCl2, 5 mM HEPES, pH 7.4). Isolated oocytes were incubated with ND96 incubation buffer (96 mM NaCl, 2 mM KCl, 1 mM MgCl2, 1.8 mM CaCl2, 5 mM HEPES, 2.5 mM sodium pyruvate, and 50 mg/mL gentamycin, pH 7.4) at 18 °C until the experiment was performed. Human 5-HT3A receptor mRNA was injected into oocytes using a nanoinjector (Drummond Scientific, Broomall, PA, USA) with a mineral-filled 10 μL microdispenser (VWR, Piscataway, NJ, USA).
(§3) To confirm the KAE activity on the human 5-HT3A receptor, a two-electrode voltage clamp (OC-725C; Warner Instruments, Hamden, CT, USA) with a Digitata 1550A was used. For the experiment, induced-inward current was converted to digital data with pClamp 10 software (Axon Instruments, Union City, CA, USA). All experiments were performed at room temperature using an oocyte clamp equipped with Digidata. The membrane holding potential was −80 mV.
(§4) The voltage relationship experiment for confirming the relationship between induce-inward current and voltage, the voltage was varied from −80 mV to +60 mV using a ramp protocol. Each microelectrode was filled with 3 M KCl having a resistance of 0.2 MΩ. Serotonin and KAE applied in the experiment were diluted in ND96 bath solution (96 mM NaCl, 2 mM KCl, 1 mM MgCl2, 1.8 mM CaCl2, and 5 mM HEPES, pH 7.5) to specified concentration. The rate of application of the reagent was 2 mL per minute. All recording data were analyzed using Clampfit 9.0 (Molecular Devices, San Jose, CA, USA).
Point mutation was performed using Pfu DNA polymerase (Quikchange II Site-Directed Mutagenesis Kit). Chimeric primer design for PCR was performed under appropriate primer design guidelines. To remove methylated cDNA, Dpn I was used. Transformation of the mutated DNA used pGEM vector. pDNA was purified using a miniprep protocol. […]
(§5) All presented experiments were performed at least three times for scientific verification. […] Induced-inward current data were analyzed with SigmaPlot 10.0 software (Systat Software, Inc., San Jose, CA, USA). […]

Assay [2] concerns the target T2, human 5-HT3A receptor R65A mutant (Homo sapiens, UniProt P46098, R87A).
T2 sequence (P46098 24-478 R87A): T1 sequence (P46098 24-478 D199A/F221A) with R64A, A176D, A198F
The assay can be described thus: Two-electrode voltage clamp, I5-HT inhibition, R65A mutant. The conditions noted are these: −80 mV.
Procedure: as §1, §2, §3
The voltage relationship experiment for confirming the relationship between induce-inward current and voltage, the voltage was varied from −80 mV to +60 mV using a ramp protocol. […] All recording data were analyzed using Clampfit 9.0 (Molecular Devices, San Jose, CA, USA). […]
as §5

The target of assay [3] is T3, human 5-HT3A receptor (wild type) (Homo sapiens, UniProt P46098).
T3 construct: expressed in transfected cells; host or cells: Xenopus oocytes injected with in vitro transcribed mRNA
T3 sequence (P46098 24-478): T1 sequence (P46098 24-478 D199A/F221A) with A176D, A198F
The assay can be described thus: Two-electrode voltage clamp, inhibition of serotonin-induced inward current (I5-HT) in Xenopus oocytes expressing wild-type receptor.
Procedure: as §1, §2, §3, §4
All presented experiments were performed at least three times for scientific verification. Data are presented as mean ± S.E.M (standard error of the mean). Induced-inward current data were analyzed with SigmaPlot 10.0 software (Systat Software, Inc., San Jose, CA, USA). To prepare a sigmoid prediction curve for induced peak data, Hill equation reflecting the binding to ligand and macromolecule was obtained with an OriginPro 9.0 software (Origin, MA, USA). The formula used was y = Vmin + (Vmax − Vmin) × [x]^n/([IC50]^n + [x]^n), where Vmin was the minimum current, Vmax was the maximum current, IC50 was the maximum half inhibitory effect percentage of inhibitory activation by KAE, [x] was the concentration of serotonin or KAE, and n was the interaction-coefficient. Statistical significance was considered when p-value was less than or equal to 0.05 (p ≤ 0.05).

Setting [4] is: read-out: Emax of serotonin concentration-response.

Broadly, the IC50 is the concentration that inhibits the measured activity by half. Read a high IC50 as a need for much substance. The Hill coefficient is a measure of the steepness of the concentration-response curve.

Changes are numbered by the printed parent chain.

With `O=c1c(O)c(-c2ccc(O)cc2)oc2cc(O)cc(O)c12` [KAE, kaempferol], the “n (Hill coefficient)” value in assay [1] (D177A+F199A, −80 mV) is 1.3 ± 0.4. In assay [1] (D177A+F199A, −80 mV, Table 1), the IC50 came out at 42.9 ± 10.2 µM and the Vmax worked out at 11.9 ± 1.2%. In assay [1] (D177 and F199 double-mutant, Figure 5D), this molecule returned an Imax of 11.9 ± 1.2%. Moreover, in assay [2], the IC50 was determined as 44.7 ± 9.1 µM, the Vmax was 82.6 ± 7.4% and the “n (Hill coefficient)” value is given as 1.8 ± 0.7. For the same molecule, in assay [3], the “Maximum-inhibitory percentage (Imax)” value was determined as 79.3 ± 4.5%, the Vmax came out at 79.3 ± 4.6% and the “efficacy of antagonist against I5-HT(100uM) of 5-HT3A” value was found to be 79.3 ± 4.6%. The same molecule came in with a Hill coefficient in assay [3] (Hill equation fit, Figure 1D, serotonin 100 μM, −80 mV) of 0.9 ± 0.1. The “competitive or non-competitive manner of inhibition” value in assay [3] (KAE fixed, serotonin 1–300 μM, Figure 2B) is given as “non-competitive manner”. In assay [3] (Wild type, −80 mV, Table 1), the IC50 was 23.4 ± 8.3 µM and the “n (Hill coefficient)” value was 1.2 ± 0.3. Besides, in assay [3] (setting [4]), the Emax at 10 µM was found to be 79.3 ± 4.8% and the Emax at 100 µM was 37.7 ± 1.2%. In addition, in assay [3] (serotonin and KAE 100 μM, Figure 1B), the “inhibitory manner (reversibility)” value is “reversible inhibitory manner”. Besides, the “voltage dependence of inhibition” value in assay [3] (voltage ramp −80 to +60 mV, KAE 10 and 100 μM, serotonin 100 μM) is “voltage-independent manner”.
